From ChEMBL document CHEMBL3507680, “University of Dundee, Gates Library screen for HepG2 cell viability” come the findings set out here.

The data set in a line: Human HepG2 cell viability assay in 384 well format. It is filed as toxicity, cell-based. Also on record: dose 125 nL, time 70.5 hour; cytotoxicity at 70.5 h: concentration not given beside the values. To be noted: HepG2 cells, read-out: Inhibition.
As for `O=C(NCCC(=O)N1CCCc2ccccc21)c1cc(F)cc(F)c1`, the cytotoxicity at 70.5 h is -7.42%.

`NC(=O)C(Nc1ccc(Cl)cc1)c1ccc(F)cc1` (centres undefined): the cytotoxicity at 70.5 h was -0.513%.

Regarding `Cc1ccc2[nH]c(CN(C)c3cc(CCN)nc(C)n3)nc2c1`, the cytotoxicity at 70.5 h is -8.93%. The result for `COCc1cc(N2CCc3onc(-c4cccc(OC)c4)c3C2)ncn1` reads -5.12%; that for `Cc1nc(CN2C[C@@H]3CN(C(=O)c4ccco4)C[C@@H]3C2=O)cs1`, -3.99%. The result for `CCOc1ccc(NC(=O)c2[nH]c(C)cc2C)cc1CO` reads 20.6%; that for `Cc1cc(C)n(CC2CCCN2CCCS(=O)(=O)N(C)C)n1` (centres undefined), -9.4%; that for `Cc1csc(N2CCN(CC(=O)Nc3cc(C)nn3C)CC2C)n1` (centres undefined), 2.09%. The result for `CCN(CCc1ccccc1)Cn1nc(C)c2c(C)onc2c1=O` reads -1.87%; that for `O=C1CC2(CCN(CC3CC3)C2)CN1c1cccnc1` (centres undefined), -9.06%. For `c1csc(N2CCCN(Cc3nc(C4CC4)no3)CC2)n1`, the cytotoxicity at 70.5 h was -15.8%. For `NC(=O)c1cc(NC(=O)NCCc2cc(F)cc(F)c2)ccc1F`, the cytotoxicity at 70.5 h is 10.2%.

`O=C(NS(=O)(=O)c1cc(Cl)sc1Cl)c1cccc2c1OCCO2`: the cytotoxicity at 70.5 h came out at 1.61%. With `Cc1nc2c(c(N[C@@H](CO)C(N)=O)n1)Cc1ccccc1OC2`, the cytotoxicity at 70.5 h is -9.03%. `Cc1nc(CN2CCC(C(=O)N(C)C3CCC(C)CC3)CC2)cs1` (centres undefined): the cytotoxicity at 70.5 h is -3.95%. Next, `CC(=O)c1ccc(OCC(=O)NS(=O)(=O)c2ccc(C)s2)cc1`: -14%; `O=C(CCN1CCOC(C(F)(F)F)C1)NCc1ccccc1Cl` (centres undefined): 15.4%; `COc1ccc(S(=O)(=O)NCC(O)c2sccc2C)cc1Cl` (centres undefined): 0.182%. Next, `Cc1c(C(=O)N2CCN(c3ccccn3)CC2)n(C)c2ccc(Cl)cc12`: -13.6%; `N#Cc1ccc(CNCCS(=O)(=O)N2CCc3ccccc32)cc1`: -10.2%; `Cc1cccc(-n2ncc3c2CCCC3NCc2cccc(O)c2)c1C` (centres undefined): -3.55%. As to `CCN1CCN(C2CCN(Cc3ncc(C(C)(C)C)o3)CC2)C1=O`, the cytotoxicity at 70.5 h is -8.55%. Next, `CC(C)n1nc(CN2CCOCC2)c2c1CN(Cc1ccsc1)C2`: -4.8%. Next, `CC(C)c1ccc(CNC(C)c2ccc(S(C)(=O)=O)cc2)cc1` (centres undefined): -8.82%; `CN(Cc1ccco1)[C@@H]1CN(Cc2ccccn2)C[C@@H]2CCCO[C@@H]21`: -9.21%; `COC(=O)[C@@H]1CN(C(=O)c2cscn2)C[C@H]1c1ccc(OC)cc1`: -1.39%. The result for `Cc1n[nH]c(SCC(=O)NC(c2ccccn2)C(C)C)n1` (centres undefined) reads -0.841%; that for `CS(=O)(=O)N1CCc2[nH]cnc2C12CCN(C(=O)c1ccccc1)CC2`, -1.52%. For the compound `CCc1ccsc1C(=O)N1CCCC(c2noc(C)n2)C1` (centres undefined), the cytotoxicity at 70.5 h was -2.57%. Next, `CC(C)Cn1cc(C(=O)NC2CCS(=O)(=O)C2)c2ccccc2c1=O` (centres undefined): -13.3%; `CCOC(=O)[C@H]1[C@@H](O)C(=O)N(C)C12CCN(C(=O)OCC)CC2`: 0.864%; `Cc1nc2c(c(=O)n1C)CN(C(=O)C1CCCN(C(N)=O)C1)C2` (centres undefined): -4.13%. Next, `COc1ccc(N(C)C(=O)C2CN(C)CCO2)cc1F` (centres undefined): -12.3%; `CN1CCN(S(C)(=O)=O)Cc2cccnc21`: -2.81%. As for `Cc1cnn(CCNC(C)C(=O)NCCc2cccs2)c1` (centres undefined), the cytotoxicity at 70.5 h was 23%. In the case of `C[C@@H]1CN(CC(=O)NCc2ccccn2)C[C@]1(C)O`, the cytotoxicity at 70.5 h is -1.62%. The result for `COC(=O)c1ccc(C2SCC(=O)Nc3c2cnn3C(C)(C)C)cc1` (centres undefined) reads -13.2%.

Consider `Cc1noc(C)c1-c1nc(C2CCCN(C(=O)CCN)C2)ccc1CO` (centres undefined), for which the cytotoxicity at 70.5 h is -1.78%.

Take `c1cnnc(N2CCCC(NCc3nnc(-c4ccco4)o3)C2)c1` (centres undefined): the cytotoxicity at 70.5 h stood at 3.16%. `CCc1noc(C)c1C(=O)N1CCCC1c1c(C)nn(C)c1OC` (centres undefined): the cytotoxicity at 70.5 h came to 18%. The result for `CC(C)c1nn(C)c(N2CCOCC2)c1CNC(C)c1cccs1` (centres undefined) reads -1.47%; that for `O=C(NCC1CC1)Nc1cnc2cc(Cl)ccc2c1O`, -1.93%. Next, `Cc1ccc(C(=O)NS(=O)(=O)c2ccccc2C)c(=O)[nH]1`: -4.91%; `COCCN(C)C[C@@H]1CN(C(=O)C(C)(C)c2ccccc2)C[C@@H]1CO`: 12.6%; `Cn1cc(CN2CCc3ncn(C)c3C2COCc2cccnc2)cn1` (centres undefined): -0.736%.

For `Cc1csc(N2CCCN(C(=O)c3ccsc3)CC2)n1`, the cytotoxicity at 70.5 h is -12%. Next, `COc1ccc(C(O)CNC(=O)Cn2ccc(=O)n(C)c2=O)cc1` (centres undefined): -5.99%; `COCCN1CCN(CC(=O)N(C)Cc2ccsc2)CC1`: -6.03%; `O=S(=O)(c1ccccc1N1CC(n2cccn2)C1)C(F)(F)F`: 1.67%. Next, `Cc1cnc(C)c(N2CCCC(CO)(Cc3cccc(Cl)c3)C2)n1` (centres undefined): 21.2%. Next, `CCS(=O)(=O)N1Cc2nccn2CC(Cn2cncn2)C1` (centres undefined): 0.16%; `Cc1c(C(C)NCc2cnn(C)c2)cnn1-c1ccccc1` (centres undefined): 2.44%; `CC(=O)N1CCCC1c1nccnc1NCc1cccnc1` (centres undefined): -8.19%. Turning to `COc1ccc(NC2CCCN(Cc3cnc(N(C)C)s3)C2)cc1OC` (centres undefined), the cytotoxicity at 70.5 h was -12%.

Consider `O=C(Cc1ccc2c(c1)OCCO2)NCc1ccc(-n2cncn2)nc1`, for which the cytotoxicity at 70.5 h was -2.42%. The result for `CNc1nc(C(=O)N2CCCCC2c2ccc(CN(C)C)cc2)cs1` (centres undefined) reads 1.16%; that for `Cc1nc(S(=O)(=O)CCn2cccn2)n(CC2CCCO2)c1C` (centres undefined), -2.87%; that for `COCCCNC(=O)NCc1nc(C)c(C)o1`, -7.01%. Next, `COc1cccc2cc(CNC(=O)N3CCCC(O)C3)oc12` (centres undefined): 46.8%; `COc1ccc(C(=O)N2CCOCC2c2ccc(C)o2)cc1` (centres undefined): -9.97%. Next, `Cc1cc(F)ccc1N1CCCC(NC2CCOCC2)C1=O` (centres undefined): 31.7%. As for `CCc1cnc(N2CC3(CCN(C(=O)c4ccoc4)C3)C2)nc1`, the cytotoxicity at 70.5 h was -1.44%.

In the case of `Cc1nc(CN2CCc3cc(C(=O)O)c(N(C)C)nc3CC2)cs1`, the cytotoxicity at 70.5 h was -5.8%.

`COCc1nc(CN2CCC3(CCCO3)CCC2=O)no1` (centres undefined): the cytotoxicity at 70.5 h is -7.37%.

With `CCS(=O)(=O)NCC(=O)Nc1cc(CC(C)(C)C)n[nH]1`, the cytotoxicity at 70.5 h is 0.46%. The result for `CCOC1COC2(CCN(Cc3cccc(C#N)c3)CC2)C1` (centres undefined) reads -8.68%. Consider `Cc1nc(N(C)C)nc2c1COCC21CCN(C(=O)NC(C)C)C1` (centres undefined), for which the cytotoxicity at 70.5 h amounted to 4.31%. The result for `Cc1nn(C)c(C)c1CCC(=O)Nc1cccn(C)c1=O` reads -3.26%. The result for `O=C(NCc1cccnc1)c1cn(CCc2ccccc2)nn1` reads 14%; that for `O=C(CC1CC1)N1Cc2nccn2CC(Cn2ncccc2=O)C1` (centres undefined), -6.18%. For the compound `COCCCNC(=O)CN1CCC(N2CCN(C)C2=O)CC1`, the cytotoxicity at 70.5 h is -10.4%. The result for `Fc1ccc(CN2CCC3(CCN(Cc4nccs4)CC3)C2)cc1` reads -0.695%. With `COCCC(=O)N1CCCC(CCC(=O)NCc2cccc(OC)c2)C1` (centres undefined), the cytotoxicity at 70.5 h was determined as 20.8%.

Regarding `O=C(CN1C(=O)c2ccccc2CS1(=O)=O)c1ccccc1`, the cytotoxicity at 70.5 h was -6.1%. Next, `COCCN1CCc2cc(C(=O)NC(C)C)c(NCC(C)C)nc2CC1`: -16.4%. The result for `CC(C)N(Cc1cccnc1)C(=O)CNc1ccc(C#N)cc1` reads -12.5%; that for `CC(=O)N1CCC2(CC1)CN(C)CC[C@H]2C(F)(F)F`, -4.42%; that for `CCS(=O)(=O)N1CCC2(CCCC(=O)N2C)CC1`, -11%. Next, `CN(c1ccc(C(=O)NCCN2CCOCC2)c(Cl)c1)S(C)(=O)=O`: -1.41%. With `Cc1nc2cc(C(=O)N3C[C@@H](NS(C)(=O)=O)[C@H](C(C)C)C3)ccc2[nH]1`, the cytotoxicity at 70.5 h is 18.5%. In the case of `Cc1nc2cc(C(=O)N3CCCC(n4cncn4)C3)ccc2n1C` (centres undefined), the cytotoxicity at 70.5 h was 22.7%. The result for `COc1ccc(CN(C)c2ccc(-c3nccn3C)nn2)cc1OC` reads -5.32%; that for `CN(C)CC1CN(Cc2ccsc2)Cc2nccn2C1` (centres undefined), -0.272%; that for `Cc1nc(CN2CCCC(N(C)Cc3c(C)noc3C)C2)no1` (centres undefined), 10.6%. The result for `CN(Cc1cc2n(n1)CCNC2)Cc1n[nH]c2c1CCC2` reads -10.9%. Turning to `CCN(c1ccsc1C(=O)N1CCC(C)CC1)S(=O)(=O)c1ccccc1`, the cytotoxicity at 70.5 h was -11.9%. The result for `COc1ccc(NC(=O)N(CC2CCOC2)C2CC2)cn1` (centres undefined) reads -6.27%. With `CC(Cn1ccnc1)NC(=O)Cc1ccc2c(c1)OCCO2` (centres undefined), the cytotoxicity at 70.5 h is -0.766%. The result for `CCCN(Cc1cnc2ccccc2n1)Cc1ccccc1OC` reads -7.09%; that for `CCOc1ncccc1NC(=O)N1CCCC1c1cc(C)no1` (centres undefined), -8.02%; that for `CC(C)(C)c1ccc(S(=O)(=O)CCNC(=O)c2cnccn2)cc1`, 10.2%.

Take `COc1cccc(CC(=O)NCc2cnc(C)nc2C2CCCN2C)c1` (centres undefined): the cytotoxicity at 70.5 h is -6.33%. The result for `CCCOC1CCCN(c2ncnc3c2CCN(C(=O)C2CC2)C3)C1` (centres undefined) reads -7.75%; that for `Cc1noc(C(C)C)c1C(=O)NCC(c1cccs1)N(C)C` (centres undefined), -8.63%.

On to `Cn1cnc2c1CCN(CCCOc1ccc(S(C)(=O)=O)cc1)C2`, for which the cytotoxicity at 70.5 h is -11.2%. Next, `O=C1O[C@@H]2CN(S(=O)(=O)N3CCCC3)C[C@@H]2N1CCc1cccc(Cl)c1`: 0.28%.

Take `Cc1nc2c(c(=O)[nH]1)CN(C(=O)CCC1CCCN(C)C1)C2` (centres undefined): the cytotoxicity at 70.5 h is -4.89%. The result for `CN(C)c1ncnc2c1CCN(S(=O)(=O)c1cccc3nsnc13)C2` reads -5.63%; that for `COc1ccc(Oc2ncccc2C(F)(F)F)cc1CN1CCCC1`, 14%.
